pIC50: −log10 of the molar value. “Also recorded” adds a separate entry of the source. Where two headings read alike, the source gives them in different places.

Data on six compounds can be found in US5965544A, “Synthetic multivalent sLe^x containing polylactosamines and methods for use” (Glycim Oy, priority 1996, dated 1999).

Assay [1] concerns mouse sperm adhesion to eggs. The following applies: Litscher et al. 1995; cited from earlier work.
The test system of another assay is CD22. Particulars: cited from earlier work.
Assay [2] has as its system L-selectin-dependent lymphocyte adhesion to peritubular capillary endothelium (PTCE). Description: Stamper-Woodruff binding assay: lymphocyte adhesion to peritubular capillary endothelium of rejecting kidney allografts. Particulars: for inhibition of lymphocyte binding to PTCE (in words) / inhibitory capacity compared with other oligosaccharides (in words): rejecting kidney allografts; for pIC50: read-out: IC50, inhibitory concentration preventing 50% of binding, L-selectin-dependent lymphocyte binding, rejecting rat kidney transplant.
From the text: The animal models for cardiac transplant rejection and kidney transplant rejection utilized inbred WF (RT1^v) and DA (RT1^a) rat strains that were maintained in a colony and regularly tested for intrastrain acceptance of transplants as well as for the absence of intrastrain mixed lymphocyte culture. DA transplants into WF recipients were allografts, WF grafts to WF and DA grafts to DA served as syngeneic controls.
Small pieces of the removed syngeneic (DA to DA and WF to WF), allogeneic (DA to WF) transplants were mounted in Tissue Tek medium (Lab-Tek Productions, Naperville, Ill.) and snapfrozen in liquid nitrogen. Eight μm thick frozen sections were prepared within one hour prior to the use of the sections in the lymphocyte--endothelium binding assay (Renkonen, R. et al., Transplantation 47:577-579 (1989); Renkonen, R. et al., Am. J. Pathol. 137:643-651 (1990); Turunen J. P. et al., Transplantation 54:1053-1058 (1992); Turunen, J. P. et al., Eur. J. Immunol. 24:1130-1136 (1994); Turunen, J. P. et al., J. Exp. Med., 182:1133-1142 (1995)).
Single cell suspensions of mesenterical lymph node lymphocytes were made by mechanical disaggregation in RPMI 1640 medium (Gibco, Grand Island, N.Y.) supplemented with Hepes (25 mM) and 0.5% fetal calf serum and the cells were passed through a 50 μm pore size mesh. Over 99% of the cells were lymphocytes, and the lymphocyte population consisted of 80-90% CD3-positive T cells, 50-60% CD4-positive T cells, 25-35% CD8-positive T cells and 10-20% CD19-positive B cells, as analyzed by flow cytometric analyses and immunoperoxidase stainings from cytocentrifuge preparations.
3×10^6 cells in 100 μl of the medium were plated on top of the tissue sections using a wax pen circle to avoid escape of the fluid. The sections were rotated horizontally on a shaker at 60 rpm for 30 minutes at +4° C. After incubation, the medium was gently tapped away by an absorbent paper and the slides were fixed in 1.5% cold glutaraldehyde overnight. The slides were stained with thionine for 30 min. The excess thionine was gently washed away from the slides in PBS, and the slides were mounted with PBS-glycerol (1:1) or Aquamount Mountant, (BHD Limited, Poole, England). From these preparations the number of lymphocytes bound to various structures was determined. At least 10-20 high power fields were analyzed from each sample and 3-4 animals were included in each group.
The oligosaccharides were dissolved in the binding buffer, and the lymphocytes were incubated in these solutions for 30 min in +4° C. Thereafter, the lymphocytes at the saccharide solutions were added to the Stamper-Woodruff binding assay without further washings and the assay was conducted as described above.
The lymphocytes were, or were not, pretreated for 30 min with various oligosaccharide constructs and added to the Stamper-Woodruff binding assay. After a 30 min binding assay the loose cells were washed away and the number of bound cells were determined.
The binding assays consisted of three experiments performed on separate days.

The subject of assay [3] is L-selectin-dependent lymphocyte adhesion to cardiac endothelium. Particulars: lymphocytes and rejecting rat heart endothelium, Turunen et al. 1995; cited from earlier work.
Assay [4] has the same test system. Description: Stamper-Woodruff binding assay: lymphocyte adhesion to endothelium of rejecting cardiac transplants. In kind it is cell-based, rat. Particulars: rejecting cardiac allografts. The source says: The inhibition of lymphocyte adhesion to cardiac endothelium during acute rejection episodes by oligosaccharides was examined using the family of oligosaccharides synthesized by enzyme-aided synthesis in Example 2: monovalent sLex tetrasaccharide (1), divalent sLex decasaccharide (4) and tetravalent sLex 22-meric oligosaccharide (9) and their non-fucosylated sialyl lactosamine analogues (3, 8). […] Concomitantly the non-fucosylated sialyl-lactosamine glycans were without effect.
In parallel experiments the capacity of the tetravalent sLex glycans 9 and 17, and of the nonfucosylated analogs glycan 8 and glycan 16, were compared in inhibiting L-selectin-dependent lymphocyte adhesion to cardiac endothelium during acute rejection. The lymphocytes were preincubated for 30 min with varying concentrations of the oligosaccharides and used thereafter in the Stamper-Woodruff binding assay in the incubation media as described in Example 1.

In assay [5] the test system is P-selectin mediated inflammation. The following applies: low concentrations; cited from earlier work.
A further assay concerns inflammation. The following applies: cited from earlier work.
For another assay, the system named is adhesion. Particulars: Stoolman et al. 1984; cited from earlier work.
Setting [6] is: listed as disialylated and difucosylated branched polylactosamine decasaccharide.

`CC(=O)NC1C(O)OC(CO)C(OC2OC(CO)C(O)C(OC3OC(CO)C(OC4OC(CO)C(O)C(OC5OC(CO)C(O)C(O)C5O)C4O)C(O)C3NC(C)=O)C2O)C1O` (stereo not drawn) [Galα1-3Galβ1-4GlcNAcβ1-3Galβ1-4GlcNAc]: in assay [1], the “inhibition of mouse sperm adhesion to eggs” value is “does not”.
As for `CC(=O)N[C@H]1[C@H]([C@H](O)[C@H](O)CO)O[C@@](OC[C@H]2O[C@@H](O[C@H]3[C@H](O)[C@@H](NC(C)=O)C(O)O[C@@H]3CO)[C@H](O)[C@@H](O)[C@H]2O)(C(=O)O)C[C@@H]1O` (stereo partly drawn) [NeuAca2-6GalB1-4GlcNAc], in the assay on CD22, the “binding / affinity to CD22” value was “binds specifically”.
“NeuAcα2-3Galβ1-4(Fucα1-3)GlcNAc [Glycan 1]”: the “decrease of lymphocyte adhesion / prevented L-selectin-dependent lymphocyte binding” value in assay [2] (at 0.5 μM) turned out to be 39%. In addition, the “inhibition of lymphocyte binding to PTCE (in words)” value (shortened to “inhibition of lymphocyte binding”) in assay [2] is listed as “able to inhibit the lymphocyte binding to PTCE significantly”. Besides, the “published Stamper-Woodruff data compared with the present ones” value in assay [3] is reported as “quite similar to the present ones”. Besides, the “inhibition of lymphocyte adhesion to cardiac endothelium (in words)” value in assay [4] is “significantly reduce lymphocyte binding”. Further, the “inhibition of short-term P-selectin mediated inflammation” value in assay [5] was “inhibiting short-term P-selectin mediated inflammation”. Besides, the “anti-inflammatory activity in vivo” value in the assay on inflammation is on record as “anti-inflammatory activity in vivo”.
On to “NeuAcα2-3Galβ1-4(Fucα1-3)GlcNAcβ1-3(NeuAcα2-3Galβ1-4(Fucα1-3)GlcNAcβ1-6)Galβ1-4GlcNAc [Glycan 4]”, for which, in assay [2], the pIC50 is 6.00, the “inhibition of lymphocyte binding” value is “able to inhibit the lymphocyte binding to PTCE significantly” and the “inhibitory capacity compared with other oligosaccharides (in words)” value is “slightly weaker inhibitor than 28; also recorded: lesser inhibitory capacity than the alditol 28”. Further, in assay [2] (setting [6]), the pIC50 is 6.30 and the “inhibitory capacity compared with other oligosaccharides (in words)” value was “less effective inhibitor”. Also, in assay [3], the “published Stamper-Woodruff data compared with the present ones” value is listed as “quite similar to the present ones”. Besides, the “inhibition of lymphocyte adhesion to cardiac endothelium (in words)” value in assay [4] is listed as “significantly reduce lymphocyte binding”.
For “NeuAcα2-3Galβ1-4GlcNAcβ1-3(NeuAcα2-3Galβ1-4GlcNAcβ1-6)Galβ1-4GlcNAcβ1-6(Galβ1-3)GalNAc-ol [Glycan 26]”, the “inhibition of lymphocyte binding” value in assay [2] is listed as “practically devoid of inhibitory activity; also recorded: did not inhibit the lymphocyte binding at all; also recorded: did not possess any inhibitory activity”; in assay [2] (listed as non-fucosylated O-glycosidic oligosaccharide alditol), “did not possess any inhibitory activity”.
As for fucoidin, in the assay on adhesion, the “concentration that blocked adhesion” value is on record as “in the nM range”.
